In patent US20210330611A1, “THERAPY FOR NEUROLOGICAL DISEASES/DISORDERS” (priority 2020, published 2021):
Read-outs that look alike come from different tables or passages of the source.

Key:
in vitro [1] = details: rat
in vitro [2] = details: rat, Cell Toxicity IC50 (uM) [cFib assay]
[3] = system: LPS-induced microglia activation; assay: Image-based assay of LPS-induced microglia activation (HTS and dose response); assay type: cell-based, rat; details: Rattus norvegicus, Microglia; for inhibition at 10 µM: read-out: LPS % inhibition
primary rat microglia [4] = details: rat
[5] = system: fibrin- and LPS-induced microglia activation; assay: cells; assay type: cell-based, rat; details: for inhibition at 10 µM: Rattus norvegicus
[6] = system: fibrin-induced microglia activation; assay: Image-based assay of fibrin-induced microglia activation (HTS and dose response); assay type: cell-based, rat; details: for IC50 / inhibition at 10 µM: Rattus norvegicus, Microglia; for inhibition at 10 µM: read-out: Fibrin % inhibition
primary rat microglia [7] = details: rat; remark: listed apart in the source
primary rat microglia [8] = assay: Cell toxicity (dead cells, size <150 μm2) in LPS assay; details: for LPS % cell toxicity: primary microglia HTS, LPS stimulation, decreased size (<150 μm^2) as marker of toxicity
primary rat microglia [9] = assay: Cell toxicity (dead cells, size <150 μm2) in coated fibrin (cFib) assay; details: primary microglia HTS;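 for Fibrin % cell toxicity: share of dead cells sized under 150 µm2 at 10 µM in fibrin-stimulated microglia HTS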
[10] = Microglia, read-out: Cherry-picked Hit (Suppl. Table 7)
[11] = 48 h, Table 1, dose response 0.001-20 μM, triplicates, primary rat microglia, 48 h, read-out: LPS IC50
[12] = 48 h, primary microglia HTS, LPS stimulation, increased cell size (>800 μm^2) as marker of activation
[13] = LPS-induced microglia activation, dose response, read-out: LPS IC50 (uM) (Suppl. Table 7)
[14] = dose response, LPS-induced microglia activation, read-out: LPS IC50
[15] = primary microglia HTS, LPS stimulation, compounds at 10 μM
[16] = HTS of 1907 compounds, quadrant by fibrin and LPS inhibition
[17] = Microglia, HTS hit classification, read-out: Hit
[18] = quadrant by fibrin and LPS inhibition in HTS of 1907 compounds
[19] = quadrant by fibrin and LPS inhibition, HTS at 10 μM
[20] = 48 h, Table 1, dose response 0.001-20 μM, triplicates, primary rat microglia, 48 h, read-out: Fibrin IC50
[21] = dose response, fibrin-induced microglia activation, read-out: Fibrin IC50
[22] = fibrin-induced microglia activation, dose response, read-out: Fibrin IC50 (uM) (Suppl. Table 7)
[23] = primary microglia HTS, fibrin stimulation, compounds at 10 μM
[24] = primary microglia HTS, fibrin stimulation, increased cell size (>800 μm^2) as marker of activation
[25] = fibrin assay, dead cells (size <150 μm2)
[26] = fibrin stimulation, decreased size (<150 μm^2) as marker of toxicity

SMILES: CCCSc1ccc2nc(NC(=O)OC)[nH]c2c1 [Albendazole, reference compound]
- IC50 (in vitro [1]): > 20 µM
- IC50 (in vitro [2]): > 20 µM
- inhibition at 10 µM ([3]; 48 h): 16%
- IC50 ([3]; 48 h, read-out: LPS IC50): 6 µM
- IC50 ([3]; read-out: LPS IC50 (uM)): 6 µM
- IC50 ([3]; read-out: LPS IC50 (uM) (Suppl. Table 7)): 6 µM
- LPS % cell toxicity (primary rat microglia [4]): 1%
- Quadrant (FIG. 5b) [5]: Q3
- inhibition at 10 µM [5, 10]: > 50%
- inhibition at 10 µM ([5]; Microglia, read-out: Hit): > 50%
- Fibrin Selectivity [6]: 2
- Fibrin Selectivity (LOG10) [6]: 0.22
- IC50 ([6]; 48 h, read-out: Fibrin IC50): 4 µM
- inhibition at 10 µM [6]: 64%
- IC50 ([6]; read-out: Fibrin IC50 (uM)): 4 µM
- IC50 ([6]; read-out: Fibrin IC50 (uM) (Suppl. Table 7)): 4 µM
- Fibrin % cell toxicity (primary rat microglia [7]): 1%

SMILES: CCN1CCCC1CNC(=O)c1cc(S(=O)(=O)CC)c(N)cc1OC (centres unmarked) [Amisulpride, reference compound]
- IC50 (in vitro [1]): > 20 µM
- IC50 (in vitro [2]; cFib assay): > 20 µM
- IC50 [3, 11]: > 20 µM
- inhibition at 10 µM [3, 12]: 31%
- IC50 [3, 13]: > 20 µM
- IC50 [3, 14]: > 20 µM
- inhibition at 10 µM [3, 15]: 12%
- LPS % cell toxicity (primary rat microglia [4]): 0%
- LPS % cell toxicity (primary rat microglia [8]): 1%
- Quadrant (FIG. 5b) [5, 16]: Q3
- inhibition at 10 µM [5, 17]: > 50%
- inhibition at 10 µM ([5]; hit classification in microglia HTS, read-out: Cherry-picked Hit (Suppl. Table 7)): > 50%
- Quadrant (FIG. 5b) ([5]; Table 1, screen at 10 μM): Q3
- Quadrant (FIG. 5b) [5, 18]: Q3
- Quadrant (FIG. 5b) [5, 19]: Q4
- IC50 [6, 20]: 20 µM
- IC50 [6, 21]: 20 µM
- IC50 [6, 22]: 20 µM
- inhibition at 10 µM [6, 23]: -5%
- inhibition at 10 µM [6, 24]: 54%
- Fibrin % cell toxicity (primary rat microglia [9]; [25]): 1%
- Fibrin % cell toxicity (primary rat microglia [9]; [26]): 2%

SMILES: Clc1ccc2c(c1)C(N1CCNCC1)=Nc1ccccc1O2 [Amoxapine, reference compound]
- IC50 (in vitro [1]): > 20 µM
- IC50 (in vitro [2]): > 20 µM
- inhibition at 10 µM ([3]; 48 h): 43%
- LPS % cell toxicity (primary rat microglia [4]): 1%
- Quadrant (FIG. 5b) [5]: Q3
- inhibition at 10 µM [5, 10]: > 50%
- inhibition at 10 µM ([5]; Microglia, read-out: Hit): > 50%
- inhibition at 10 µM [6]: 58%
- Fibrin % cell toxicity (primary rat microglia [7]): 0%

SMILES: C[C@H]1[C@H](OC(=O)CCC(=O)O)O[C@@H]2O[C@@]3(C)CC[C@H]4[C@H](C)CC[C@@H]1[C@@]24OO3 [Artesunate, reference compound]
- IC50 (in vitro [1]): > 20 µM
- IC50 (in vitro [2]; Table 3): > 20 µM
- IC50 (in vitro [2]; cFib assay): > 20 µM
- IC50 [3, 11]: > 20 µM
- inhibition at 10 µM [3, 12]: 20%
- IC50 [3, 13]: > 20 µM
- IC50 ([3]; Table 3, read-out: LPS IC50 (uM) (Suppl. Table 7)): > 20 µM
- IC50 [3, 14]: > 20 µM
- inhibition at 10 µM [3, 15]: 7%
- LPS % cell toxicity (primary rat microglia [4]): 0%
- LPS % cell toxicity (primary rat microglia [8]): 0%
- IC50 (primary rat microglia [8]; read-out: Cell Toxicity IC50 (uM) [LPS assay], LPS assay): > 20 µM
- Quadrant (FIG. 5b) [5, 16]: Q3
- inhibition at 10 µM ([5]; Microglia, Table 3, read-out: Cherry-picked Hit (Suppl. Table 7)): > 50%
- inhibition at 10 µM [5, 17]: > 50%
- Quadrant (FIG. 5b) ([5]; Table 1, screen at 10 μM): Q3
- Quadrant (FIG. 5b) ([5]; Table 3, screen at 10 μM): Q3
- Quadrant (FIG. 5b) [5, 18]: Q3
- Quadrant (FIG. 5b) [5, 19]: Q4
- Fibrin Selectivity [6]: 3
- Fibrin Selectivity (LOG10) [6]: 0.45
- IC50 [6, 20]: 7 µM
- IC50 ([6]; Table 3, read-out: Fibrin IC50 (uM) (Suppl. Table 7)): 7 µM
- IC50 [6, 21]: 7 µM
- IC50 [6, 22]: 7 µM
- inhibition at 10 µM [6, 23]: 47%
- inhibition at 10 µM [6, 24]: 63%
- Fibrin % cell toxicity (primary rat microglia [9]; [25]): 1%
- Fibrin % cell toxicity (primary rat microglia [9]; [26]): 1%
